{
  "source": "patent US10188743B2",
  "about": "“Cytisine-linked isoflavonoid antineoplastic agents for the treatment of cancer” (UNIVERSITY OF KENTUCKY RESEARCH FOUNDATION, priority 2016, dated 2019)",
  "key": {"AMPK": {"test_system": "AMPK", "experiment": "AMPK activation (levels of phosphorylated AMPK, Western blotting)", "format": "cell-based", "method": "Biochemistry. Western blotting: Cells were lysed in the appropriate volume of lysis buffer (50 mM HEPES, 100 mM NaCl, 2 mM EDTA, 1% glycerol, 50 mM NaF, 1 mM Na3VO4, 1% Triton X-100, with protease inhibitors). The following antibodies were used: HSD17B4 (GeneTex, GTX103864), AMPK (Cell Signaling, 2532), pAMPK (Cell Signaling, 2535), ACC (Cell Signaling, 3676), pACC (Cell Signaling, 11818), p^70 (Cell Signaling, 2708), p-p^70 (Cell Signaling, 9914), S6 (Cell Signaling, 2217), pS6 (Cell Signaling, 4858), MCCA (GeneTex, GTX110062), tubulin (Hybridoma Bank, E7), Actin (Sigma, A1978), His-tag (BD Pharmingen, 552564)."}, "[1]": {"molecular_target": "T1, hydratase activity of HSD17B4 (Homo sapiens, UniProt P51659)", "T1 construct": "His-tag; made in house; host or cells: E. coli BL21 (pET28)", "T1 sequence (P51659 1-736)": "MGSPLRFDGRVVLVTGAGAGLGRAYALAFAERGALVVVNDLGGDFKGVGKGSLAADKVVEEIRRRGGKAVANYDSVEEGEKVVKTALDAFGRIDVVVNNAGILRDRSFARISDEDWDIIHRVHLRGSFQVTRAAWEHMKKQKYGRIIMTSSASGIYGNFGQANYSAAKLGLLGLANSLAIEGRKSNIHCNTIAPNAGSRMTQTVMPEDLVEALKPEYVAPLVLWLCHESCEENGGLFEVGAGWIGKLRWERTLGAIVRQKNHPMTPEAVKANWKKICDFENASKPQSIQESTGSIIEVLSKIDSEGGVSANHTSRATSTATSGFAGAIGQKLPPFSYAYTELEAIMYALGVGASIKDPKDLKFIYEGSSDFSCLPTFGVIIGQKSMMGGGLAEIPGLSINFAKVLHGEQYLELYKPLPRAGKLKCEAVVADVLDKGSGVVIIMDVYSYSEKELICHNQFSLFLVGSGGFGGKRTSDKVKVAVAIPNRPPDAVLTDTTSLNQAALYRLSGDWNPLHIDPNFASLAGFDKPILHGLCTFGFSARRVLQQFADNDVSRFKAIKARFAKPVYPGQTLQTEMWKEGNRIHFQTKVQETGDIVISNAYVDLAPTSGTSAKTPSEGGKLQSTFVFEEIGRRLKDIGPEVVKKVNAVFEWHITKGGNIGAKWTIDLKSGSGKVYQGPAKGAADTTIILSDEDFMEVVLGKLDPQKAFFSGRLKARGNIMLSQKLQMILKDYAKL", "experiment": "HSD17B4 hydratase assay (crotonoyl CoA substrate)", "format": "biochemical", "description": "We acquired further evidence along these lines through studies using the N-terminal α,β-dehydrogenase and C-terminal hydratase fragments of HSD17B4 as well as the full-length protein. We evaluated the α,β-dehydrogenase activity using DL-3-hydroxylbutyryl-CoA as a substrate and the conversion of NAD^+ to NADH as a readout. We concomitantly measured the hydratase activity using crotonoyl-CoA as a substrate and the diminished ultraviolet absorption of the α,β-unsaturated thioester chromophore as readout. The full-length protein, as expected, had both enzyme activities (FIGS. 7A and 7B). The C-terminal-truncated fragments N318 and N634 but not the N-terminal-truncation fragment C919 had α,β-dehydrogenase activity (FIG. 7A). The C-terminal fragment N634 and the N-terminal fragment C919, but not the C-terminal fragment N318, had hydratase activity (FIG. 7B), as summarized in FIG. 3A.\nThe enzymatic activities of HSD17B4 were analyzed using the method reported by Novikov et al. (J. Biol. Chem., 1994, 269, 27125). […] The reaction was quantified by measuring the fluorescent product NADH (excitation: 340 nm; emission 460 nm). […] The reaction was quantified by measuring the remaining substrate using absorbance at 280 nm."}},
  "data": [
    {"smiles": "O=c1c(-c2ccc(Cl)cc2)coc2cc(OCCN3C[C@@H]4C[C@@H](C3)c3cccc(=O)n3C4)ccc12", "note": "[Compound 10c, (1 S,5S)-3-(2-((3-(4-chlorophenyl)-4-oxo-4H-chromen-7-yl)oxy)ethyl)-3,4,5,6-tetrahydro-1H-1,5-methanopyrido[1,2-a][1,5]diazocin-8(2H)-one]", "values": [
      {"measurement": "AMPK activation", "setting": "AMPK; LS174T colon cancer cells", "value": "activated AMPK"},
      {"measurement": "AMPK activation", "setting": "AMPK; PC-3 prostate cancer cells", "value": "activated AMPK"},
      {"measurement": "effect on hydratase activity", "setting": "[1]", "value": "significantly inhibited"}
    ]}
  ]
}
